Test results published in PubChem BioAssay AID192 (DTP/NCI, 2004).
Several values for one entry are separate records, joined by “and”; a condition that tells them apart may be missing. Identical values can stand only once. Inconclusive results and toxic doses are left out. Rule for the calls: active = survival T/C of 150% or more; inactive = T/C below 125% in these data.

System: BDF1 mice, B16 melanoma ip, median survival T/C
Test: NCI In Vivo Anticancer Drug Screen. Data for tumor model B16 Melanoma (intraperitoneal) in B6D2F1 (BDF1) mice
Conditions: endpoint: median survival time, higher = longer survival
In short: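 Transplantable tumor model; survival or tumor size measured; reported as T/C, treated over vehicle control.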

[1] = dose: 6.25 mg/kg/injection, schedule: Q01DX009 (ip), vehicle: saline
[2] = dose: 12.5 mg/kg/injection, schedule: Q01DX009 (ip), vehicle: saline
[3] = dose: 25.0 mg/kg/injection, schedule: Q01DX009 (ip), vehicle: saline
[4] = dose: 50.0 mg/kg/injection, schedule: Q01DX009 (ip), vehicle: Klucel (hydroxypropylcellulose) (HPC)
[5] = dose: 100.0 mg/kg/injection, schedule: Q01DX009 (ip), vehicle: Klucel (hydroxypropylcellulose) (HPC)
[6] = dose: 200.0 mg/kg/injection, schedule: Q01DX009 (ip), vehicle: Klucel (hydroxypropylcellulose) (HPC)
[7] = dose: 400.0 mg/kg/injection, schedule: Q01DX009 (ip), vehicle: Klucel (hydroxypropylcellulose) (HPC)
[8] = dose: 3.12 mg/kg/injection, schedule: Q01DX009 (ip), vehicle: Klucel (hydroxypropylcellulose) (HPC)
[9] = dose: 6.25 mg/kg/injection, schedule: Q01DX009 (ip), vehicle: Klucel (hydroxypropylcellulose) (HPC)
[10] = dose: 12.5 mg/kg/injection, schedule: Q01DX009 (ip), vehicle: Klucel (hydroxypropylcellulose) (HPC)
[11] = dose: 25.0 mg/kg/injection, schedule: Q01DX009 (ip), vehicle: Klucel (hydroxypropylcellulose) (HPC)
[12] = dose: 25.0 mg/kg/injection, schedule: Q04DX003 (ip), vehicle: Klucel (hydroxypropylcellulose) (HPC)
[13] = dose: 50.0 mg/kg/injection, schedule: Q04DX003 (ip), vehicle: Klucel (hydroxypropylcellulose) (HPC)
[14] = dose: 100.0 mg/kg/injection, schedule: Q04DX003 (ip), vehicle: Klucel (hydroxypropylcellulose) (HPC)
[15] = dose: 50.0 mg/kg/injection, schedule: Q01DX009 (ip), vehicle: saline
[16] = dose: 100.0 mg/kg/injection, schedule: Q01DX009 (ip), vehicle: saline

Measured: T/C

CCCCOB(/C=C/Sc1ccccc1)OCCCC
inactive: [1] 101 % of control | [2] 119 % of control | [3] 100 % of control | dose: 35.0 mg/kg/injection, schedule: Q01DX009 (ip), vehicle: saline 117 % of control | [4] 102 % of control | dose: 300.0 mg/kg/injection, schedule: Q01DX009 (ip), vehicle: Klucel (hydroxypropylcellulose) (HPC) 101 % of control

Cc1ccc(NC(=S)N(C)C)cc1C
inactive: [5] 100 % of control | [6] 100 % of control | [7] 92 % of control

CN(Cc1cnc2nc(N)nc(N)c2n1)c1c(Cl)cc(C(=O)NC(CCC(=O)O)C(=O)O)cc1Br (stereo unspecified)
inactive: dose: 25.0 mg/kg/injection, schedule: Q01DX011 (ip), vehicle: saline 101 % of control | dose: 50.0 mg/kg/injection, schedule: Q01DX011 (ip), vehicle: saline 105 % of control

Nc1nc(-c2ccccc2N=NN2CCN(N=Nc3ccccc3-c3nc(N)c4ccccc4n3)CC2)nc2ccccc12
inactive: [8] 95 % of control | [9] 92 % of control | [10] 107 % of control | [11] 107 % of control | [4] 113 % of control

c1ccc(CSc2ncnc3nc[nH]c23)cc1
inactive: [11] 95 % of control | [12] 95 % of control | [13] 100 % of control | [14] 97 % of control

CC(C)[NH-].CC(C)[NH-].O.O.[Cl][Pt+2][Cl]
active: dose: 12.5 mg/kg/injection, schedule: Q01DX009 (ip), vehicle: dextrose 164 % of control and 168 % of control
inactive: dose: 3.12 mg/kg/injection, schedule: Q01DX009 (ip), vehicle: dextrose 118 % of control | dose: 3.13 mg/kg/injection, schedule: Q01DX009 (ip), vehicle: dextrose 122 % of control

Cc1cccc(C)c1NC(=O)Nc1ccc(Cl)cc1
inactive: [5] 93 % of control | [6] 93 % of control | [7] 87 % of control

CC(=O)CC(C)=NCC(C)N=C(C)CC(C)=O.c1cc[c]([Sn][c]2ccccc2)cc1 (stereo unspecified)
inactive: dose: 5.0 mg/kg/injection, schedule: Q04DX003 (ip), vehicle: saline with Tween-80 119 % of control

CCOc1ccc(NC(=O)Nc2cccc(Cl)c2)cc1
inactive: [5] 100 % of control | [6] 93 % of control | [7] 96 % of control

CS(=O)(=O)Nc1ccc(Nc2c3ccccc3nc3cc([N+](=O)[O-])ccc23)cc1
inactive: dose: 0.6 mg/kg/injection, schedule: Q01DX009 (ip), vehicle: saline sonified 112 % of control
active: dose: 2.5 mg/kg/injection, schedule: Q01DX009 (ip), vehicle: saline sonified 154 % of control | dose: 50.0 mg/kg/injection, schedule: Q01DX001 (ip), vehicle: saline sonified 158 % of control

CCc1ccccc1NC(=O)Nc1ccccc1
inactive: [5] 90 % of control | [14] 100 % of control | [6] 90 % of control | dose: 200.0 mg/kg/injection, schedule: Q04DX003 (ip), vehicle: Klucel (hydroxypropylcellulose) (HPC) 100 % of control | dose: 400.0 mg/kg/injection, schedule: Q04DX003 (ip), vehicle: Klucel (hydroxypropylcellulose) (HPC) 92 % of control

C=C1C(=O)O[C@H]2C1[C@H](OC(=O)/C(C)=C\COC(C)=O)C[C@]1(CO1)[C@@H]1[C@H](O)[C@H]3O[C@@]3(C)[C@@H]12 (stereo partly specified)
inactive: dose: 3.12 mg/kg/injection, schedule: Q01DX009 (ip), vehicle: other 112 % of control | dose: 6.25 mg/kg/injection, schedule: Q01DX009 (ip), vehicle: other 104 % of control | dose: 12.5 mg/kg/injection, schedule: Q01DX009 (ip), vehicle: other 107 % of control | dose: 25.0 mg/kg/injection, schedule: Q01DX009 (ip), vehicle: other 106 % of control | dose: 50.0 mg/kg/injection, schedule: Q01DX009 (ip), vehicle: other 109 % of control

CN(CO)c1nc(N(C)CO)nc(N(C)CO)n1
inactive: [1] 111 % of control | [2] 112 % of control and 118 % of control | [3] 110 % of control and 124 % of control | [15] 120 % of control

C=CCc1c(C)ccc(C)c1OC
inactive: [12] 102 % of control | [13] 101 % of control | [14] 93 % of control

COC(=O)[C@H]1[C@H]2C[C@@H]3c4[nH]c5cc(OC)ccc5c4CCN3C[C@H]2C[C@@H](OC(=O)c2cccc(N(C)C)c2)[C@@H]1OC
inactive: dose: 0.39 mg/kg/injection, schedule: Q01DX009 (ip), vehicle: Klucel (hydroxypropylcellulose) (HPC) 93 % of control | dose: 0.78 mg/kg/injection, schedule: Q01DX009 (ip), vehicle: Klucel (hydroxypropylcellulose) (HPC) 91 % of control and 94 % of control | dose: 1.56 mg/kg/injection, schedule: Q01DX009 (ip), vehicle: Klucel (hydroxypropylcellulose) (HPC) 97 % of control and 116 % of control | [8] 94 % of control

Cc1c2cccc(F)c2c[n+]2ccccc12
inactive: [9] 100 % of control | [10] 100 % of control | [11] 106 % of control

CC[C@@]1(O)C(=O)OCc2c1cc1n(c2=O)Cc2cc3cc(OC)ccc3nc2-1
active: dose: 0.39 mg/kg/injection, schedule: Q01DX009 (ip), vehicle: other 157 % of control | dose: 0.79 mg/kg/injection, schedule: Q01DX009 (ip), vehicle: other 174 % of control

CCC(CC)CC1CN2CCc3cc(OC)c(OC)cc3C2CC1(O)CC (stereo unspecified)
inactive: [8] 102 % of control | [9] 102 % of control | [10] 102 % of control | [11] 106 % of control

Cc1cc([N+](=O)[O-])c(N)c([N+](=O)[O-])c1
inactive: [5] 100 % of control | [6] 93 % of control | [7] 100 % of control

C[C@]12CCC(=O)C=C1[C@@H](F)C[C@@H]1[C@@H]2[C@@H](O)C[C@@]2(C)[C@H]1CC[C@]2(O)C(=O)CO
inactive: dose: 25.0 mg/kg/injection, schedule: Q01DX009 (sc), vehicle: steriod suspending solution 95 % of control | dose: 50.0 mg/kg/injection, schedule: Q01DX009 (sc), vehicle: steriod suspending solution 97 % of control | dose: 100.0 mg/kg/injection, schedule: Q01DX009 (sc), vehicle: steriod suspending solution 101 % of control

CC(C)N=C(N)/N=C(\N)Nc1ccc2ccc3ccccc3c2c1
inactive: [9] 112 % of control | [10] 103 % of control | [11] 87 % of control

CC(=O)O[C@@]1(C)[C@@H](C)C(=O)O[C@@H]2CCN3CC=C(COC(=O)[C@]1(C)O)[C@H]23
inactive: [2] 119 % of control | [15] 119 % of control | [16] 97 % of control

COc1cc2ccc3c(c2cc1OC)N(C)C(OC)c1cc2c(cc1-3)OCO2 (stereo unspecified)
inactive: dose: 10.0 mg/kg/injection, schedule: Q01DX009 (ip), vehicle: saline with Tween-80 119 % of control

CCCCCCCCSCCO
inactive: dose: 12.5 mg/kg/injection, schedule: Q01DX009 (ip), vehicle: saline with Tween-80 102 % of control | dose: 25.0 mg/kg/injection, schedule: Q01DX009 (ip), vehicle: saline with Tween-80 97 % of control

CC1(c2ccc(O)cc2)CCC(C(C)(C)c2ccc(O)cc2)CC1 (stereo unspecified)
inactive: [4] 87 % of control | [5] 96 % of control | [6] 91 % of control

CC[n+]1ccc(Nc2ccc(/C=C/c3ccc4cc(Nc5cc[n+](CC)cc5)ccc4[n+]3CC)cc2)cc1
inactive: dose: 2.5 mg/kg/injection, schedule: Q01DX009 (ip), vehicle: saline 117 % of control | dose: 5.0 mg/kg/injection, schedule: Q01DX009 (ip), vehicle: saline 109 % of control | dose: 10.0 mg/kg/injection, schedule: Q01DX009 (ip), vehicle: saline 86 % of control

N#CCc1ccccc1S(=O)(=O)O
inactive: [16] 103 % of control | dose: 200.0 mg/kg/injection, schedule: Q01DX009 (ip), vehicle: saline 104 % of control | dose: 400.0 mg/kg/injection, schedule: Q01DX009 (ip), vehicle: saline 104 % of control

CC(C)N1CSC(=S)N(Cc2ccccc2)C1
inactive: [5] 96 % of control | [6] 105 % of control

C=CCOCC(O)CO (stereo unspecified)
inactive: dose: 100.0 mg/kg/injection, schedule: Q04DX003 (ip), vehicle: saline 109 % of control | dose: 200.0 mg/kg/injection, schedule: Q04DX003 (ip), vehicle: saline 93 % of control | dose: 400.0 mg/kg/injection, schedule: Q04DX003 (ip), vehicle: saline 102 % of control

COCC1OC(OC2OCC3OC4(OCC(O)(C(C)OC)C5OCOC54)OC3C2OC)C(OC)C(O)C1OC1OC(C)C(OC)C(OC2OC(C)C3OC4(CC(O)C(OC5CC(OC6CC(C)([N+](=O)[O-])C(OC)C(C)O6)C(OC(=O)c6c(C)c(Cl)c(O)c(Cl)c6OC)C(C)O5)C(C)O4)OC3(C)C2O)C1O (stereo unspecified)
inactive: [1] 97 % of control | [2] 95 % of control | [3] 100 % of control | [15] 101 % of control
